Measured values from US4613588A, “Benzaldehyde and 4,6-O-benzylidene-D-glucose for alleviating pain” (Kaken Pharmaceutical Co. Ltd., priority 1984, dated 1986).
Like-named read-outs stand apart in the source and are kept apart here.

How the values were obtained:
[1] = Japanese Patent Application Laid-Open No. 108027/1977 and No. 70428/1979; cited from earlier work
[2] = molecular target: T1, dipeptidylaminopeptidase (enkephalinase B) (Macaca fascicularis, UniProt A0A7N9C8Y6); assay: Enkephalinase B inhibiting effect; type: biochemical
T1 construct: releases Tyr-Gly from enkephalin
T1 sequence (A0A7N9C8Y6 1-737): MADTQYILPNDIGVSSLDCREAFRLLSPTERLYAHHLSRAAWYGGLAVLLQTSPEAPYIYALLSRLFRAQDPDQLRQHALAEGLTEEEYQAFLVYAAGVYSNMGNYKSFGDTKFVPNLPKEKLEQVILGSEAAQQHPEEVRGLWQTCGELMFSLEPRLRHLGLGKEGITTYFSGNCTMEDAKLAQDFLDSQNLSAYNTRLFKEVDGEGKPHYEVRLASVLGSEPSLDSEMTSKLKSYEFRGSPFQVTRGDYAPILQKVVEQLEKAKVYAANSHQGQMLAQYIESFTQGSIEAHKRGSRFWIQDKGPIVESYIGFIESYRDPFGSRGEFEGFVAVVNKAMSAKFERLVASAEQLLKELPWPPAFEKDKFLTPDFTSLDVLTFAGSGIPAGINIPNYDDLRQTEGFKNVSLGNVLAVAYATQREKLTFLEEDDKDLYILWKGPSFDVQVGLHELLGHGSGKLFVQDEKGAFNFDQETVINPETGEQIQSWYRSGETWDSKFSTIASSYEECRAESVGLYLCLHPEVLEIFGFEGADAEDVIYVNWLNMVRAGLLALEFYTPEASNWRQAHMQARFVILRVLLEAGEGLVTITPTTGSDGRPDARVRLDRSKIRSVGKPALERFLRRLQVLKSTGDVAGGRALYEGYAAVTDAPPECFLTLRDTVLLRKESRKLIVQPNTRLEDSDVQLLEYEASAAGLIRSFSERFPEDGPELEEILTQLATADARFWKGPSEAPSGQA
Experimental: (§1) The cerebrum of Macaca Fascicularis was chopped using anatomical scissors, 3 volumes that of 25 mM tris-hydrochloric acid buffer (pH 7.7) was added thereto and the mixture homogenized. It was then ultracentrifuged (50,000×g), the supernatant was removed, and the obtained precipitants were treated and washed twice using the same buffer (these precipitates contained enkephalin decomposing enzymes in a form combined to the cell membrane).
(§2) Thereafter, 25 mM tris-hydrochloric acid buffer (pH 7.7) containing 1% of Triton X-100 was added to the precipitates to extract enkephalinase. […]
(§3) The obtained enkephalin decomposing enzymes were analyzed by acrylamide electrophoresis to find that they were single proteins respectively.
(§4) The enzymatic activity of the respective decomposing enzymes obtained above was measured by the qualitative and quantitative analyses of the decomposition products using [^3 H]-enkephalin or enkephalin as a substrate and employing Porapak Q (produced by Water Associates) column method, high-performance liquid chromatography (HPLC), silica gel thin layer autography, etc. […]

[3] = molecular target: T2, dipeptidylcarboxypeptidase (enkephalinase A) (Macaca fascicularis, UniProt G7NZK8); assay: Enkephalinase A inhibiting effect; type: biochemical; settings: read-out: enzyme inhibiting effect on enkephalinase A
T2 construct: releases Tyr-Gly-Gly from [3H]Leu-enkephalin
T2 sequence (G7NZK8 2-750): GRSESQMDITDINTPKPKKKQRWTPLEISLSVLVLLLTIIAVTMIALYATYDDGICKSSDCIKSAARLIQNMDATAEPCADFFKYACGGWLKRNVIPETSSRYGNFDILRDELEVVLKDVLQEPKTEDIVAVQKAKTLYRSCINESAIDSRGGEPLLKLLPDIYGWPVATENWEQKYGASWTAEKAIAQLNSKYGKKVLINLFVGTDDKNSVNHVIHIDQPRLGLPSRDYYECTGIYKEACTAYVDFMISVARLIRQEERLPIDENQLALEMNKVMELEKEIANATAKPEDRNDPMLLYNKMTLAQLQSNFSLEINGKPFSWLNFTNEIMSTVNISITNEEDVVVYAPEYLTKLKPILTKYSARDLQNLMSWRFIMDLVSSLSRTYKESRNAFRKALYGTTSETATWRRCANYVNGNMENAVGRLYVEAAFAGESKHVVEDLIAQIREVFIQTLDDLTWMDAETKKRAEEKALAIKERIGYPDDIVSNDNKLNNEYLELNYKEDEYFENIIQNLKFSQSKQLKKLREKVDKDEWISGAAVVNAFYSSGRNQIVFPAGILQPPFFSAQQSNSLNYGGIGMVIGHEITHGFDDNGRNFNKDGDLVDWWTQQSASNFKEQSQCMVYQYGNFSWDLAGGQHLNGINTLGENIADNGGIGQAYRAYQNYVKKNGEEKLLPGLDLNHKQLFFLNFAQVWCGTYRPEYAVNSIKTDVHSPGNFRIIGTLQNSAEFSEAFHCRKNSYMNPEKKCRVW
Experimental: as §1, §2, §3
The enzymatic activity of the respective decomposing enzymes obtained above was measured by the qualitative and quantitative analyses of the decomposition products using [^3 H]-enkephalin or enkephalin as a substrate and employing Porapak Q (produced by Water Associates) column method, high-performance liquid chromatography (HPLC), silica gel thin layer autography, etc.
10 μl of 10 μCi [^3 H] […] Tyr-Gly-Gly was determined using a liquid scintillation counter. […]

carcinomatous pain = assay: Carcinomatous pain treating tests (clinical examples); type: in vivo, human; settings: one patient
Experimental: Further, using benzaldehyde and 4,6-O-benzylidene-D-glucose the following carcinomatous pain treating tests were conducted.
After hospitalization, 25 mg benzaldehyde tablets (enteric tablets containing benzaldehyde prepared in the above-described Formulation Example 5) were administered at a dosage of 5 tablets, 4 times a day.
Since variety of chemotherapeutics were not administered because there was a threat of strong side effects, the sole administration of 4,6-O-benzylidene-D-glucose was started in such a way that 1,200 mg of a freeze dried preparation thereof was dissolved in 100 ml of physiological saline and administered i.v. at a rate of once a day (time required being ca. 10 minutes).

[4] = molecular target: T3, angiotensin converting enzyme (Macaca fascicularis, UniProt A0A2K5VWQ5); assay: Angiotensin converting enzyme inhibiting effect; type: biochemical
T3 sequence (A0A2K5VWQ5 31-1307): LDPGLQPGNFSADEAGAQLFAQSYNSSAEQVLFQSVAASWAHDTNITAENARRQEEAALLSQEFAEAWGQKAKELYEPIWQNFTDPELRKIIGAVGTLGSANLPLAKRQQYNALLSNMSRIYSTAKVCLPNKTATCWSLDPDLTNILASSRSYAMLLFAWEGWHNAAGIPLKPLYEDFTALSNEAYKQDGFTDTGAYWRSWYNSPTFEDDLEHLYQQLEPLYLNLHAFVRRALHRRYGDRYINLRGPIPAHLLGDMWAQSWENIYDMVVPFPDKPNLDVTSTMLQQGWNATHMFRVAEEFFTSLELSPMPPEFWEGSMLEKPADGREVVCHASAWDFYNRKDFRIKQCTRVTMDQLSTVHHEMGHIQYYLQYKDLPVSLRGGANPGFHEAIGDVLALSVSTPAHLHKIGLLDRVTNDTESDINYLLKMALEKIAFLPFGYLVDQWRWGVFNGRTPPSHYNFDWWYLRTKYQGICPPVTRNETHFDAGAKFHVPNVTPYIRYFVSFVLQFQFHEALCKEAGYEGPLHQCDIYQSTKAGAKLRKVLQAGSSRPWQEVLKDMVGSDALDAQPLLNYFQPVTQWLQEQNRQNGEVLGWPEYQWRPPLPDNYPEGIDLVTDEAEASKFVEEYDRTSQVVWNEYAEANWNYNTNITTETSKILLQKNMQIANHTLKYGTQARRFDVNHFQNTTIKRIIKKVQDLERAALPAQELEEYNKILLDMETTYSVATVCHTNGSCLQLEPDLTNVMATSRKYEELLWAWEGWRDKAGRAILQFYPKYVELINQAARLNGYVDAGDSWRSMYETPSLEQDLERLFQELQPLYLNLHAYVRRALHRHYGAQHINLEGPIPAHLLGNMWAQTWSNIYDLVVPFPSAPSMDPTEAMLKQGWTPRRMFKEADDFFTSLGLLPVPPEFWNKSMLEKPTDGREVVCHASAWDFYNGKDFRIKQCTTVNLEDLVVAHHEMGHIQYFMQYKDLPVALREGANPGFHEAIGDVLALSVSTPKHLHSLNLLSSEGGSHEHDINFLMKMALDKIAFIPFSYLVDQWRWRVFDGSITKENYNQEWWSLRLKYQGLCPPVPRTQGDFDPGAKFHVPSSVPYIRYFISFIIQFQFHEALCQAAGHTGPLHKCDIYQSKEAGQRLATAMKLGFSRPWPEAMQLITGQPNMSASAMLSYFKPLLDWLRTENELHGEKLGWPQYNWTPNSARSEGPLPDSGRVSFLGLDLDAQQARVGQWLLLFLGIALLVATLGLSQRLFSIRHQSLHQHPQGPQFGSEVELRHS
Experimental: as §1, §2, §3, §4

aminopeptidase = assay: Aminopeptidase (enkephalin decomposing enzyme) inhibiting effect; type: biochemical, Macaca Fascicularis
Experimental: as §1, §2, §3, §4

[5] = Acute toxicity by subcutaneous injection in rats; settings: rat, in vivo, sc
Text: Since both benzaldehyde and 4,6-O-benzylidene-D-glucose are substantially non-toxic a wide dosage range may be administered depending on the severity of the pain experienced. The acute toxicity of benzaldehyde and 4,6-O-benzylidene-D-glucose are 5 g/kg or higher and 4 g/kg or higher, respectively, when measured by subcutaneous injection in rats according to conventional toxicity procedures.

Row | SMILES | carcinostatic effect [1] | enzyme inhibiting effect on enkephalinase B ([2]; 1.2 mg/ml) | inhibition at 1200 µg/mL ([3]; 1.2 mg/ml) | pain (carcinomatous pain; gastric cancer metastasis to bone, 1,200 mg i.v. once a day, 17th to 18th day) | tumor condition by bone scintillation (carcinomatous pain; gastric cancer metastasis to bone, 1,200 mg i.v. once a day, 26th day, versus before administration) | mobility (carcinomatous pain; gastric cancer metastasis to bone, 1,200 mg i.v. once a day, from 10th day) | enzyme inhibiting effect on angiotensin converting enzyme ([4]; 1.2 mg/ml) | enzyme inhibiting effect on aminopeptidase (aminopeptidase; 1.2 mg/ml) | LD50 [5] | enzyme inhibiting effect on enkephalinase B ([2]; 1 mg/ml) | inhibition at 1000 µg/mL [3] | pain (subjective symptom) (carcinomatous pain; mandible cancer relapse, 25 mg enteric tablets (Formulation Example 5), 5 tablets 4 times a day, oral, from 5th day) | carcinoma size by X-ray examination (carcinomatous pain; mandible cancer relapse, 25 mg enteric tablets, 5 tablets 4 times a day, oral) | pain (subjective symptom) (carcinomatous pain; mandible cancer relapse, 25 mg enteric tablets, 5 tablets 4 times a day, oral, 7th day) | enzyme inhibiting effect on angiotensin converting enzyme ([4]; 1 mg/ml) | enzyme inhibiting effect on aminopeptidase (aminopeptidase; 1 mg/ml) | LD50 ([5]; subcutaneous injection, rats, read-out: acute toxicity)
1 | OC1O[C@@H]2COC(c3ccccc3)O[C@H]2[C@H](O)[C@H]1O (stereo partly drawn) [4,6-O-benzylidene-D-glucose] | known to have carcinostatic effect | did not exhibit an enzyme inhibiting effect | 81% | the pain almost disappeared | the tumor condition was the same | became able to sit on bed | did not exhibit an enzyme inhibiting effect | did not exhibit an enzyme inhibiting effect | ≥ 4000 mg/kg | – | – | – | – | – | – | – | –
2 | O=Cc1ccccc1 [benzaldehyde] | known to have carcinostatic effect | – | – | – | – | – | – | – | – | did not exhibit an enzyme inhibiting effect | 99% | the pain was eased | did not reduce in size | almost no pain | did not exhibit an enzyme inhibiting effect | did not exhibit an enzyme inhibiting effect | ≥ 5000 mg/kg
